Measured values: patent publication US6815189B1, “Gene from acremonium chrysogenum encoding a protein with cephalosporin C acetylhydrolase activity and methods of use of such gene” (Antibiotics, S.A.U., priority 1999, dated 2004)
Like-named read-outs stand apart in the source and are kept apart here.

Tests used:
CPC-AH B [1] = target: T1, CPC-AH B (Hapsidospora chrysogena, UniProt A0A086SV17); assay: In-vitro deacetylation by enzymatic extracts from E. coli JM109(DE3)/pT7B2.2 (processed CPC-AH B); assay type: biochemical, Acremonium chrysogenum; conditions: substrate 20 mM, 60 minutes at 37° C.
extracellular CPC-AH = conditions: cited from earlier work
CPC-AH B [2] = target: T1, CPC-AH B; assay: Effect of metals and inhibitors on CPC-AH B activity (HPLC test of DAC formation from CPC); assay type: biochemical, Acremonium chrysogenum
[3] = final concentration of the ions 1 mM
[4] = metals 1 mM, pre-incubated 15 minutes at 4° C., NONE = 100

T1 sequence (A0A086SV17 107-383): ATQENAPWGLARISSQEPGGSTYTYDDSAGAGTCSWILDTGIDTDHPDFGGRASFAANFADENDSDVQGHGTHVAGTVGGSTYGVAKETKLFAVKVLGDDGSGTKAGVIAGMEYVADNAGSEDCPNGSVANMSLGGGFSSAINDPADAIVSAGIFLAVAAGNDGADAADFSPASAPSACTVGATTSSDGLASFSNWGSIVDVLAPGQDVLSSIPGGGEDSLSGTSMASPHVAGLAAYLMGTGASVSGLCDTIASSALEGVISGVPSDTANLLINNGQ

For `CC(=O)OCC1=C(C(=O)O)N2C(=O)[C@@H](N)[C@H]2SC1` [7-ACA, 7-aminocephalosporanic acid], which “Deacetylation of substrate” value (CPC-AH B [1]) is on record?
The value was “detected appearance of the corresponding deacetylated derivatives”.

Which “Deacetylation of substrate” value (CPC-AH B [1]) does the source give for `CC(=O)OCC1=C(C(=O)O)N2C(=O)[C@@H](NC(=O)CCC[C@@H](N)C(=O)O)[C@H]2SC1` [CPC, cephalosporin C] here?
Its value is “detected appearance of the corresponding deacetylated derivatives”.

What about the Km (extracellular CPC-AH) of the same compound?
The Km was 20 mM.

For `O=C(O)CN(CCN(CC(=O)O)CC(=O)O)CC(=O)O` [EDTA], which “CPC-AH activity (%)” value (CPC-AH B [2]; inhibitor 0.1 mM, NONE = 100) is on record?
Its value is 91%.

What about the “CPC-AH activity (%)” value (CPC-AH B [2]; inhibitor 1 mM, NONE = 100) of the same compound?
The value was 87%.

And the “CPC-AH activity (%)” value (CPC-AH B [2]; inhibitor 10 mM, NONE = 100)?
Its value is 86%.

For `O=S(=O)([O-])[O-].[Fe+2]` [FeSO4], which “Effect of metal ion on CPC-AH B activity” value (CPC-AH B [2]; [3]) is on record?
Its value is “inhibit activity to a greater or lesser extent”.

What about the “CPC-AH activity (%)” value (CPC-AH B [2]; [4]) of the same compound?
The value was 49%.

For `O=C([O-])[O-].[K+].[K+]` [K2CO3], which “CPC-AH activity (%)” value (CPC-AH B [2]; [4]) is on record?
The value was 77%.

Which “Effect of metal ion on CPC-AH B activity” value (CPC-AH B [2]; [3]) does the source give for `O=S(=O)([O-])[O-].[Mg+2]` [MgSO4] here?
Its value is “stimulating effect”.

What about the “CPC-AH activity (%)” value (CPC-AH B [2]; [4]) of the same compound?
The value was 141%.

What does the source list for `O=S(=O)([O-])[O-].[Mn+2]` [MnSO4]?
Effect of metal ion on CPC-AH B activity (CPC-AH B [2]; [3]): stimulating effect; CPC-AH activity (%) (CPC-AH B [2]; [4]): 140%

Which “CPC-AH activity (%)” value (CPC-AH B [2]) does the source give for `[Cl-].[Na+]` [NaCl] here?
Its value is 94%.

With `O=S(=O)(F)Cc1ccccc1` [PMSF, phenylmethylsulphonyl fluoride] as the compound, how does the “Effect of inhibitor on CPC-AH B activity” value (CPC-AH B [2]) read?
Its value is “strong inhibitory effect”.

Which “Effect of metal ion on CPC-AH B activity” value (CPC-AH B [2]; [3]) does the source give for `O=S(=O)([O-])[O-].[Zn+2]` [ZnSO4] here?
Its value is “inhibit activity to a greater or lesser extent”.

What about the “CPC-AH activity (%)” value (CPC-AH B [2]; [4]) of the same compound?
The value was 60%.

Which “CPC-AH activity (%)” value (CPC-AH B [2]) does the source give for AgNO3 here?
The value was 60%.

And the “Effect of metal ion on CPC-AH B activity” value (CPC-AH B [2])?
The value was “inhibit activity to a greater or lesser extent”.

For CaCl2, which “CPC-AH activity (%)” value (CPC-AH B [2]) is on record?
The value was 147%.

And the “Effect of metal ion on CPC-AH B activity” value (CPC-AH B [2])?
The value was “stimulating effect”.

Which “CPC-AH activity (%)” value (CPC-AH B [2]) does the source give for CoSO4 here?
The value was 80%.

Which “CPC-AH activity (%)” value (CPC-AH B [2]) does the source give for CuSO4 here?
The value was 64%.

What about the “Effect of metal ion on CPC-AH B activity” value (CPC-AH B [2]) of the same compound?
The value was “inhibit activity to a greater or lesser extent”.
